In patent US20030203908A1, “Dihydrofolate reductase inhibitors” (priority 2000, published 2003):
Converted amounts (≈) assume the structure as drawn.

Experiments:
[1] = biological target: T1, wild-type (wt) DHFR from Plasmodium falciparum (Plasmodium falciparum, UniProt P13922, N108S/R59C); assay: Inhibition of wild-type pfDHFR (spectrophotometric, Ki); format: biochemical; conditions: Ki(wt) nM;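 further: Affinity-purified enzyme, initial reaction rates measured across a range of inhibitor concentrations, Ki obtained by nonlinear least-squares fitting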
T1 construct: The Dihydrofolate Reductase Domain of Plasmodium falciparum Thymidylate Synthase-Dihydrofolate Reductase; made in house
Description: (§1) For determination of the Ki values of a number of synthesized analogues, the assay reactions were initiated with affinity-purified enzyme (^˜0.005-0.01 U ml^−1), and the initial velocities in the presence of varying concentrations of inhibitors were analysed by non-linear least square fit using Kaleidagraph™ software.

[2] = biological target: T2, A16V.S108T mutant (mut) of DHFR from Plasmodium falciparum (Plasmodium falciparum, UniProt A7UD81, A16V/S108T); assay: biochemical
T2 construct: The Dihydrofolate Reductase Domain of Plasmodium falciparum Thymidylate Synthase-Dihydrofolate Reductase; made in house
Description: as §1

[3] = tested on: A16V.S108T mutant (mut) of DHFR from Plasmodium falciparum; assay: biochemical; conditions: resistance factor
Description: as §1

[4] = tested on: wild-type (TM4/8.2) strain of P. falciparum; assay: microbe, parasite or virus in culture; format: cell-based, Plasmodium falciparum; conditions: Plasmodium falciparum; wild-type strain TM4/8.2
Description: Mol. Biochem. Parasitol. […] Science, 1976, 193, 673-675]. In vitro antimalarial activity was determined by using [^3H]-hypoxanthine incorporation method [Desjardins, R. E.; Canfield, C. J.; Haynes, J. D.; Chulay, J. D. Quantitative assessment of antimalarial activity in vitro by a semiautomated microdilution technique. Antimicrob Agents Chemother. 1979, 16, 710-718]. The drugs were initially dissolved in DMSO and diluted with the culture media. Aliquots (25 μl) of drug solution of different concentrations was placed in 96-well plate together with 200 μl of 1.5% cell suspension of parasitized erythrocytes containing 1-2% parasitemia. Final concentration of DMSO was 0.1% where there was no effect on the parasite growth. The mixtures were incubated in a 3% CO2 incubator at 37° C. After 24 h of incubation, 25 μl (0.25 μCi) of [^3H]-hypoxanthine were added to each well. The mixtures were further incubated under the same condition for 18-24 h. DNA of parasites was harvested onto glass filter paper (Unifilter, Packard, USA). The filters were dried and liquid scintillation fluid was added for radioactivity measurement in a 6-probe liquid scintillation-counter (Packard, USA).

[5] = biological target: T3, DHFR-TS from Trypanosoma cruzi (Trypanosoma cruzi, UniProt Q27793); assay: Inhibition of T. cruzi DHFR-TS (I50-derived Ki);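 on all read-outs here: enzymes were recombinant T. cruzi DHFR-TS and human DHFR, both expressed in E. coli and purified on a methotrexate affinity column, with dihydrofolate and NADPH as substrates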; format: biochemical; conditions: for Selectivity: human Ki / T. cruzi Ki
T3 construct: pET 11c with the insertion of the complete ORF of the gene tc-dhfrts; made in house; host or cells: E. coli BL21 (DE3)
Description: DHFR activity was measured spectrophotometrically by monitoring the decrease in absorbance at 340 mm.
(§2) Inhibition of dihydrofolate reductases by 1,2-dihydro-1,3,5 triazines was analysed with T. cruzi and human DHFR.
(§3) DHFR assays contained 30 mM dihydrofolate, 0.1 mM NADPH, 50 mM TES buffer pH 7, 75 mM 2-mercaptoethanol and specified amounts of inhibitors. The reaction was initiated by addition of 2.8 or 2.3 units of T. cruzi and human, respectively, and monitored at 340 nm.
Selective inhibition of dihydrofolate reductase by 1,2-dihydro-1,3,5-triazines was analysed with T. cruzi and human DHFR. DHFR assays contained 30 μM dihydrofolate, 0.1 mM NADPH, 50 mM TES buffer pH 7, 75 mM β-mercaptoethanol and specified amounts of inhibitors. The reaction was initiated by addition of 2.8 or 2.3 units of T. cruzi and human enzyme, respectively, and monitored at 340 nm.
KiI 50=[I]0.5/((1+[S])/Km)

human DHFR [6] = biological target: T4, human DHFR (Homo sapiens, UniProt P00374); assay: Inhibition of human DHFR (I50-derived Ki); format: biochemical; conditions: Human Ki (I50)(nM);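 further: recombinant human DHFR expressed in E. coli and purified by methotrexate affinity chromatography, enzyme activity followed spectrophotometrically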
T4 construct: made in house; host or cells: E. coli M15
T4 sequence (P00374 1-187): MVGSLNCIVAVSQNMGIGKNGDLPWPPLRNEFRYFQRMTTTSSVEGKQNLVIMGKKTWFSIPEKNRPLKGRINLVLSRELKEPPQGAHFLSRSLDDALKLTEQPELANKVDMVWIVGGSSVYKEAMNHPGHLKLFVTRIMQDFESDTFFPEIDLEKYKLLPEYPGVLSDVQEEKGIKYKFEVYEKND
Description: (§4) Folic acid and NADPH, were purchased from Sigma. Dihydrofolate was prepared from folic acid dithionate reduction. Methotrexate (MTX) was from Lederle Laboratories. MTX sepharose CL-6B was prepared according to the protocol described by Dann. et al. IPTG came from Boehringer Manheim. The expression system used for recombinant human DHFR production, which includes the plasmid PB-E1/RB SII, SphI-HDHFR expressed in E. coli M15, was supplied by Santi, D. V (Department of Biochemistry and Biophysics and Department of Pharmaceutical Chemistry, University of California). Recombinant T. Cruzi DHFR-TS was produced using the system pET 11c with the insertion of the complete ORF of the gene tc-dhfrts. The resulting plasmid was called pET DT.
(§5) Human and T.cruzi DHFR were produced using inducible expression systems. For human DHFR, fresh overnight cultures of E. coli M15, transformed with the plasmid, pB-E1/RB SII, SphI-HDHFR, were grown in LB and 0.1 mg/ml ampicillin medium at 28° C. For T.cruzi DHFR-TS, cultures of E. coli, BL21 (DE3) transformed with the plasmid pETDT system were grown at 37° C. The same purification protocol was used for both systems. When OD600 was at 0.8, cells pellets were collected by centrifugation, suspended in 50 ml of LB medium, containing 0.1 mg/ml of ampicillin. 10 ml of this preinocule was added to 2 litres of LB medium. Cultures were shaken at 28° C. or 37° C. (for human and T. cruzi DHFR respectively) and induction with IPTG ImM was performed when OD600 reached 0.8. After IPTG induction, cells were grown overnight in a shaker at 28° C. or 5 hours at 28° C. or 37° C. (for human and T. cruzi DHFR respectively) and then harvested by centrifugation.
(§6) Cell pellets were suspended in sonication buffer (2× TES DHFR:TES 100 mM, 2-mercaptoethanol 150 mM, EDTA 2 mM pH=7) containing protease inhibitors.
(§7) Crude extract was circulated through the MTX-Sepharose column at 4° C. at a flow rate of 0.2 ml/min until the protein was bound to the resin. The column was washed with an excess of buffer B (KH2PO410 mM pH 7, KC1 1M). Protein was eluted at 0.2 min/ml with an elution buffer (100 mM TES, 10 mM DTT, 2 mM EDTA, DHF 8.5 mM), the elution profile was collected in 1 ml fractions using a Pharmacia LKB Frac 200 collector. Finally, the protein was desalted using molecular size exclusion chromatography in a Pharmacia G-25 column. Fractions containing DHFR activity were pooled and concentrated by ultrafiltration using centripreps Amicon.
(§8) The purity of the protein preparation was assessed by detection of a single band of the correct molecular weight stained with coomasie blue following a 12% SDS-PAGE. Protein concentration was determined by the method of Bradford using a BSA as a standard. DHFR activity was measured spectrophotometrically by monitoring the decrease in absorbance at 340 mm. […] One unit of enzyme, is defined as the amount of enzyme which produces 1 nmol of product per min using ε of 12300M^−1 at 340 nm.
as §2, §3
(§9) Selective inhibition of dihydrofolate reductase by 1,2-dihydro-1,3,5-triazines was analysed with T. cruzi and human DHFR. DHFR assays contained 30 μM dihydrofolate, 0.1 mM NADPH, 50 mM TES buffer pH 7, 75 mM β-mercaptoethanol and specified amounts of inhibitors. The reaction was initiated by addition of 2.8 or 2.3 units of T. cruzi and human enzyme, respectively, and monitored at 340 nm. […] KiI 50=[I]0.5/((1+[S])/Km)

human DHFR [7] = assay: Inhibition of human DHFR (I50-derived Ki); format: biochemical;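 further: recombinant human DHFR expressed in E. coli and purified by methotrexate affinity chromatography, enzyme activity followed spectrophotometrically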
Description: as §4, §5, §6, §7, §8, §2, §3, §9

[8] = tested on: P. falciparum 3D7 (wild-type strain); assay: In vitro inhibition of P. falciparum 3D7; format: cell-based, Plasmodium falciparum; conditions: Plasmodium falciparum, 3D7 strain, read-out: Pf-3D7 ED50
[9] = tested on: P. falciparum FCR3 (resistant strain containing the A16V.S108T DHFR mutant); assay: In vitro inhibition of P. falciparum FCR3; format: cell-based, Plasmodium falciparum; conditions: Plasmodium falciparum; in vitro, FCR3 strain; read-out: Pf-FCR3 ED50

T3 sequence (Q27793 whole entry): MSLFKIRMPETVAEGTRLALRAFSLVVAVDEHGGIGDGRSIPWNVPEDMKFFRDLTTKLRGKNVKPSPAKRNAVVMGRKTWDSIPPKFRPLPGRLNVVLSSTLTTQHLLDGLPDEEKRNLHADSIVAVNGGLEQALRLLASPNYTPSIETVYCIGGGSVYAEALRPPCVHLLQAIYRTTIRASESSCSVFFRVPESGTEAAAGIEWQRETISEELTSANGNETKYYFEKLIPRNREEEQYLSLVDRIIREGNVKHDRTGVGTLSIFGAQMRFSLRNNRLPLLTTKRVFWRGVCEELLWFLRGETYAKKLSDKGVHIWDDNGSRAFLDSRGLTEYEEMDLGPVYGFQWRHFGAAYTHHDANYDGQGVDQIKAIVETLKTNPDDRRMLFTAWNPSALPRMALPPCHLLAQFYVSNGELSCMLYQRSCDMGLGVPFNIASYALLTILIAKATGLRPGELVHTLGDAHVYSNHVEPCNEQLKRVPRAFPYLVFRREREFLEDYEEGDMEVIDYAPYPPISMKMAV
T1 sequence (P13922 10-228 R59C/N108S): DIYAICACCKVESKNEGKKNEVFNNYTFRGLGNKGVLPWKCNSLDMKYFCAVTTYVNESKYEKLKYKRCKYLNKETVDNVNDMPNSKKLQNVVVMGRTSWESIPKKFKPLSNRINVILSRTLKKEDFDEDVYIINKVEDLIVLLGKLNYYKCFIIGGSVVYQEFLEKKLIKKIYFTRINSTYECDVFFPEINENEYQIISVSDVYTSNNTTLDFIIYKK
T2 sequence (A7UD81 1-231 A16V/S108T): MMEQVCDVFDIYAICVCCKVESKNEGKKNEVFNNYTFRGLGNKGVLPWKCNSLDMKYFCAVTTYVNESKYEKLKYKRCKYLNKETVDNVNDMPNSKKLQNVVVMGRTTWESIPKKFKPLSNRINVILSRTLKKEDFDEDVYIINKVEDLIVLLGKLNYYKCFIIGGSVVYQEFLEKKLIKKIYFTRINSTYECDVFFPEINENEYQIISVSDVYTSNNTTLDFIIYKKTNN

SMILES	Ki [1] [nM]	Ki [2] [nM]	Ki(mut)/Ki(wt) [3]	IC50 [4] [nM]	Ki [5] [nM]	Selectivity [5]	Ki (human DHFR [6]; human DHFR) [nM]	Ki (human)/Ki (P. falc. mut) (human DHFR [7])	Ki (human)/Ki (P. falc. wt) (human DHFR [7])	Ki (human)/Ki (T. cruzi) (human DHFR [7])	IC50 [8] [µg/mL]	IC50 [9] [µg/mL]	Ki (human DHFR [6]) [nM]
CCCCOc1ccc(C2N=C(N)N=C(N)N2c2ccc(OCc3ccccc3)cc2)cc1 (stereo not drawn) [1-p-benzyloxyphenyl-2-p-n-butoxyphenyl-4,6-diamino-1,2-dihydro-1,3,5-triazine]	0.8 ± 0.1	6.6 ± 0.6	8.2	384	49	4.1	203	31	253	4.1			
COc1ccc(Oc2cccc(C3N=C(N)N=C(N)N3c3ccc(Cl)cc3)c2)cc1 (stereo not drawn) [(Ia) R2=3-(4-methoxyphenoxyl)phenyl]	0.7	6.6	9.4	2880	48	17	830				5.19 (≈ 12.3 µM)	1.25 (≈ 2.96 µM)	
CC(C)(C)c1ccc(Oc2cccc(C3N=C(N)N=C(N)N3c3ccc(Cl)cc3)c2)cc1 (stereo not drawn) [(Ia) R2=3-(4-t-butylphenoxy)phenyl]	1.7	9.9 ± 1.5	5.8	4120	112	7	770				0.75 (≈ 1.67 µM)	0.26 (≈ 0.58 µM)	
NC1=NC(c2ccc(-c3ccccc3)cc2)N(c2ccc(Cl)cc2)C(N)=N1 (stereo not drawn) [(Ia) R2=4-biphenyl]	1.3 ± 0.1	8.5	6.5	621							2.2 (≈ 5.85 µM)	0.68 (≈ 1.81 µM)	
Cl.NC1=NCN(c2ccc(Cl)cc2)C(N)=N1 [(Ia) R2=H, 1-(4′-Chlorophenyl)-4,6-diamino-1,2-dihydro-1,3,5-triazine hydrochloride]	24.4 ± 4.3	649 ± 77	26	952	16	76		1.9	49.7	75.7	0.04	0.13	1210
NC1=NC(c2cccc(OCc3ccccc3)c2)N(c2ccc(Cl)cc2)C(N)=N1 (stereo not drawn) [(Ia) R2=m-benzyloxyphenyl]	0.7	6.2	8.8	832							0.18 (≈ 0.443 µM)	0.62 (≈ 1.53 µM)	
NC1=NC(c2cccc(Oc3ccccc3)c2)N(c2ccc(Cl)cc2)C(N)=N1 (stereo not drawn) [(Ia) R2=m-phenoxyphenyl, 1-p-chlorophenyl-2-m-phenoxyphenyl-4,6-diamino-1,2-dihydro-1,3,5-triazine]	0.5	2.7	5.4	367	21	9	190				0.28 (≈ 0.715 µM)	0.32 (≈ 0.817 µM)	
NC1=NC(c2ccc(OCc3ccccc3)cc2)N(c2ccc(Cl)cc2)C(N)=N1 (stereo not drawn) [(Ia) R2=p-benzyloxyphenyl]	0.6	4.4	7.3	107	13	85	1110				0.26 (≈ 0.641 µM)		
CCCCOc1ccc(C2N=C(N)N=C(N)N2c2ccc(Cl)cc2)cc1 (stereo not drawn) [(Ia) R2=p-butyloxyphenyl, 1-p-chlorophenyl-2-p-n-butyloxyphenyl-4,6-diamino-1,2-dihydro-1,3,5-triazine]	1 ± 0.1	5	5.0	287	26	15	400	80	400	15.3	0.14 (≈ 0.376 µM)	0.091 (≈ 0.245 µM)	
CCOc1ccc(C2N=C(N)N=C(N)N2c2ccc(Cl)cc2)cc1 (stereo not drawn) [(Ia) R2=p-ethoxyphenyl, 1-p-chlorophenyl-2-p-ethoxyphenyl-4-6-diamino-1,2-dihydro-1,3,5-triazine]	1.5 ± 0.2	36 ± 6	24.3	181	70	25	1730	48	1153	24.7			
NC1=NC(c2ccc(F)cc2)N(c2ccc(Cl)cc2)C(N)=N1 (stereo not drawn) [(Ia) R2=p-fluorophenyl]	8.6 ± 1.4	130 ± 17	15.1	359	1010	10	10600	81	1227	10.4			
CC(C)c1ccc(C2N=C(N)N=C(N)N2c2ccc(Cl)cc2)cc1 (stereo not drawn) [(Ia) R2=p-isopropylphenyl, 1-p-chlorophenyl-2-p-isopropylphenyl-4,6-diamino-1,2-dihydro-1,3,5-triazine]	1.9 ± 0.6	15.2 ± 1.6	8.0	973	60	167	10000	661	5289	167			
COc1ccc(C2N=C(N)N=C(N)N2c2ccc(Cl)cc2)cc1 (stereo not drawn) [(Ia) R2=p-methoxyphenyl, 1-p-chlorophenyl-2-p-methoxyphenyl-4,6-diamino-1,2-dihydro-1,3,5-triazine]	11.4 ± 1.5	129 ± 25	11.3	424	26	212	5530	42.9	485	212			
NC1=NC(c2ccc(Oc3ccccc3)cc2)N(c2ccc(Cl)cc2)C(N)=N1 (stereo not drawn) [(Ia) R2=p-phenoxyphenyl, 1-p-chlorophenyl-2-p-phenoxyphenyl-4,6-diamino-1,2-dihydro-1,3,5-triazine]	0.4	3.8	9.5	121	3	376	1130				0.07 (≈ 0.179 µM)	0.2 (≈ 0.51 µM)	
CC(C)(C)c1ccc(Oc2cccc(C3N=C(N)N=C(N)N3c3cccc(Cl)c3)c2)cc1 (stereo not drawn) [(Ib) R2=3-(4-t-butylphenoxy)phenyl]	7.7 ± 0.5	5.6 ± 0.9	0.7	5040							> 0.3	0.47 (≈ 1.05 µM)	
NC1=NC(c2cccc(OCc3ccccc3)c2)N(c2cccc(Cl)c2)C(N)=N1 (stereo not drawn) [(Ib) R2=3-benzyloxyphenyl]	2.3 ± 0.5	3.2 ± 0.2	1.4	3970	12	3.8	46				0.45 (≈ 1.11 µM)	0.019 (≈ 0.0468 µM)	
NC1=NCN(c2ccc(OCc3ccccc3)cc2)C(N)=N1 [R2=H, X=BnO, Y=H]	22.4 ± 1.3	28.6 ± 2.2	1.3	690	10	4.4	44	1.54	1.96	4.44			
NC1=NCN(c2cccc(Cc3ccccc3)c2)C(N)=N1 [R2=H, X=H, Y=Bn]	9.4 ± 0.4	6 ± 0.1	0.6	403	29	2.3	66	11	7.0	2.27			
